Laboratory results reported in patent US20260007715A1, “WOUND CARE DEVICE” (priority 2019, published 2026).
“Also recorded” adds a separate entry of the source. Where no end group is shown, it is not given here.

What was measured:
Horse blood = test: Blood coagulation on hydrogel samples with different peptides, whole horse blood test (Experiment 3); type: cell-based; conditions: citrated horse blood recalcified, 60 min at 37° C., washed three times with PBS, duplicate
Description: Hydrogels were functionalized with 4 different types of antimicrobial peptides (AMPs). The AMPs used were PGLa, LL-37, Temporin B and RRP9W4. As control hydrogels without any attached AMPs were used.
Fresh citrated Horse blood was purchased from Håtunalab AB, Sweden and used to show how if presence of AMPs can induce clotting. In an Eppendorf tube, 1 ml of blood with 0.1 ml of 250 Mm calcium chloride (to reverse the citrate anticoagulant) was added and mixed.
Samples were placed in 24 well plate and conditioned by adding 1 ml PBS to the hydrogels. After 15 minutes the samples were transferred to the Eppendorf tubes containing the blood. The tubes were then placed on shaker and incubated for 60 min at 37° C.
As blank controls, 1 ml of blood was added to an Eppendorf tube without any hydrogels and treated with the same conditions. […] Samples were run in duplicate.

plasmatic coagulation = conditions: literature, Int. J. Mol. Sci. 2019, 20, 5426; cited from earlier work

Substance	Observations (clot on hydrogel) (Horse blood)	effect on plasmatic coagulation (plasmatic coagulation)
RRPRPRPRPWWWW-NH2 [RRP9W4, PRELP derived antimicrobial peptide]	large visible clot; also recorded: surprising clotting effect; also recorded: Big clot with firm attachment onto the surface	
LL-37: human cathelicidin derived LL-37 peptide (LLGDFFRKSKEKIGKEFKRIVQRIKDFLRNLVPRTES; Antibacterial peptide LL-37; UniProt P49913 134-170, looked up)	no clot formation; also recorded: did not form a strong clot; also recorded: No visible clot was observed	not to affect plasmatic coagulation
